Measurements published in ChEMBL document CHEMBL4295262, “Evaluation of the utility of stem-cell derived cardiomyocytes for drug proarrhythmic potential” (2019).

Key:
Settings in all cases: human, ipsc-cm
[1] = (§1) Electrical activity assay on cell lines treated with a given drug. DMSO was used as a vehicle and a control, unblinded dofetilide was used as a control.; format: ADME, cell-based
[2] = as §1
[3] = as §1; format: cell-based; set-up: APDc: unit not given here
[4] = as §1; format: ADME, cell-based; set-up: FPDc: unit not given here
[5] = as §1; format: ADME, cell-based; remark: listed apart in the source
[6] = as §1; remark: listed apart in the source
[7] = as §1; remark: listed apart in the source
[8] = 0.0009507 µM, concentration (um) 0.000950736 uM
[9] = 0.003004 µM, concentration (um) 0.00300433 uM
[10] = 0.009494 µM, concentration (um) 0.00949367 uM
[11] = 0.03 µM, concentration (um) 0.03 uM
[12] = 0.1 µM, concentration (um) 0.1 uM
[13] = 10 µM, concentration (um) 10 uM
[14] = 100 µM, concentration (um) 100 uM
[15] = 0.0001 µM, concentration (um) 0.0001 uM
[16] = 0.001 µM, concentration (um) 0.001 uM
[17] = 0.01 µM, concentration (um) 0.01 uM
[18] = 0.9507 µM, concentration (um) 0.950736 uM
[19] = 3.004 µM, concentration (um) 3.00433 uM
[20] = 9.494 µM, concentration (um) 9.49367 uM
[21] = 30 µM, concentration (um) 30 uM

O=c1[nH]c2ccccc2n1C1CCN(CCCC(c2ccc(F)cc2)c2ccc(F)cc2)CC1 [PIMOZIDE]
FPD measurement [1, 8]: 46.31 FPDc
FPDc [1, 8]: 6 Values Out Of 6 Were Excluded Due To Quiescence Or 0 Fpdc
FPD measurement [1, 9]: 49.59 FPDc
FPDc [1, 9]: 6 Values Out Of 6 Were Excluded Due To Quiescence Or 0 Fpdc
FPD measurement [1, 10]: 61.97 FPDc
FPDc [1, 10]: 6 Values Out Of 6 Were Excluded Due To Quiescence Or 0 Fpdc
FPD measurement [1, 11]: 56.98 FPDc
FPDc [1, 11]: 6 Values Out Of 6 Were Excluded Due To Quiescence Or 0 Fpdc
FPD measurement ([2]; 0.0009507 µM): 1 Values Out Of 1 Were Excluded Due To Quiescence Or 0 Fpdc
FPDc ([2]; 0.0009507 µM): 1 Values Out Of 1 Were Excluded Due To Quiescence Or 0 Fpdc
FPD measurement ([2]; 0.003004 µM): 1 Values Out Of 1 Were Excluded Due To Quiescence Or 0 Fpdc
FPDc ([2]; 0.003004 µM): 1 Values Out Of 1 Were Excluded Due To Quiescence Or 0 Fpdc
FPD measurement ([2]; 0.009494 µM): 1 Values Out Of 1 Were Excluded Due To Quiescence Or 0 Fpdc
FPDc ([2]; 0.009494 µM): 1 Values Out Of 1 Were Excluded Due To Quiescence Or 0 Fpdc
FPD measurement ([2]; 0.03 µM): 1 Values Out Of 1 Were Excluded Due To Quiescence Or 0 Fpdc
FPDc ([2]; 0.03 µM): 1 Values Out Of 1 Were Excluded Due To Quiescence Or 0 Fpdc
APDc [3, 8]: 66.03
FPD measurement [3, 8]: 66.03 FPDc
APDc [3, 9]: 67.09
FPD measurement [3, 9]: 67.09 FPDc
APDc [3, 10]: 74.77
FPD measurement [3, 10]: 74.77 FPDc
APDc [3, 11]: 98.75
FPD measurement [3, 11]: 98.75 FPDc
FPDc [4, 8]: 18.43
FPD measurement [4, 9]: 5 Values Out Of 5 Were Excluded Due To Quiescence Or 0 Apdc
FPDc [4, 9]: 26.86
FPDc [4, 10]: 37.06
FPDc [4, 11]: 13.57

CC(C)N(CCC(C(N)=O)(c1ccccc1)c1ccccn1)C(C)C (configuration not stated) [DISOPYRAMIDE]
FPD measurement [1, 12]: 49.69 FPDc
FPDc [1, 12]: 6 Values Out Of 6 Were Excluded Due To Quiescence Or 0 Fpdc
FPD measurement ([1]; 1 µM, concentration (um) 1 uM): 52.18 FPDc
FPDc ([1]; 1 µM, concentration (um) 1 uM): 6 Values Out Of 6 Were Excluded Due To Quiescence Or 0 Fpdc
FPD measurement [1, 13]: 63.31 FPDc
FPDc [1, 13]: 6 Values Out Of 6 Were Excluded Due To Quiescence Or 0 Fpdc
FPDc [1, 14]: 6 Values Out Of 6 Were Excluded Due To Quiescence Or 0 Fpdc
FPD measurement ([2]; 0.1 µM): 1 Values Out Of 1 Were Excluded Due To Quiescence Or 0 Fpdc
FPDc ([2]; 0.1 µM): 1 Values Out Of 1 Were Excluded Due To Quiescence Or 0 Fpdc
FPD measurement ([2]; 1 µM): 1 Values Out Of 1 Were Excluded Due To Quiescence Or 0 Fpdc
FPDc ([2]; 1 µM): 1 Values Out Of 1 Were Excluded Due To Quiescence Or 0 Fpdc
FPD measurement ([2]; 10 µM): 1 Values Out Of 1 Were Excluded Due To Quiescence Or 0 Fpdc
FPDc ([2]; 10 µM): 1 Values Out Of 1 Were Excluded Due To Quiescence Or 0 Fpdc
FPD measurement ([2]; 100 µM): 1 Values Out Of 1 Were Excluded Due To Quiescence Or 0 Fpdc
FPDc ([2]; 100 µM): 1 Values Out Of 1 Were Excluded Due To Quiescence Or 0 Fpdc
FPD measurement [5, 12]: 5 Values Out Of 5 Were Excluded Due To Quiescence Or 0 Apdc
FPDc [5, 12]: 23.29
FPD measurement ([5]; 1 µM, concentration (um) 1 uM): 5 Values Out Of 5 Were Excluded Due To Quiescence Or 0 Apdc
FPDc ([5]; 1 µM, concentration (um) 1 uM): 24.45
FPD measurement [5, 13]: 5 Values Out Of 5 Were Excluded Due To Quiescence Or 0 Apdc
FPDc [5, 13]: 24.5
FPD measurement [5, 14]: More Than Half The Wells Had A Quiescence Event Or Apdc Readings Of 0
FPDc [5, 14]: More Than Half The Wells Had A Quiescence Event Or Fpdc Readings Of 0
APDc ([6]; 0.1 µM): 56.58
FPD measurement ([6]; 0.1 µM): 56.58 FPDc
APDc ([6]; 1 µM): 63.45
FPD measurement ([6]; 1 µM): 63.45 FPDc
APDc ([6]; 10 µM): 68.66
FPD measurement ([6]; 10 µM): 68.66 FPDc
APDc ([6]; 100 µM): 66.87
FPD measurement ([6]; 100 µM): 66.87 FPDc
FPD measurement [4, 12]: 5 Values Out Of 5 Were Excluded Due To Quiescence Or 0 Apdc
FPDc [4, 12]: 48.43
FPD measurement ([4]; 1 µM, concentration (um) 1 uM): 5 Values Out Of 5 Were Excluded Due To Quiescence Or 0 Apdc
FPDc ([4]; 1 µM, concentration (um) 1 uM): 75.52
FPDc [4, 13]: 26.6
FPD measurement [4, 14]: 5 Values Out Of 5 Were Excluded Due To Quiescence Or 0 Apdc
FPDc [4, 14]: 18.51

COc1ccc(CCN2CCC(Nc3nc4ccccc4n3Cc3ccc(F)cc3)CC2)cc1 [ASTEMIZOLE]
FPD measurement ([2]; 0.0001 µM): 1 Values Out Of 1 Were Excluded Due To Quiescence Or 0 Fpdc
FPDc ([2]; 0.0001 µM): 1 Values Out Of 1 Were Excluded Due To Quiescence Or 0 Fpdc
FPD measurement ([2]; 0.001 µM): 1 Values Out Of 1 Were Excluded Due To Quiescence Or 0 Fpdc
FPDc ([2]; 0.001 µM): 1 Values Out Of 1 Were Excluded Due To Quiescence Or 0 Fpdc
FPD measurement ([2]; 0.01 µM): 1 Values Out Of 1 Were Excluded Due To Quiescence Or 0 Fpdc
FPDc ([2]; 0.01 µM): 1 Values Out Of 1 Were Excluded Due To Quiescence Or 0 Fpdc
FPD measurement ([2]; 0.1 µM): 1 Values Out Of 1 Were Excluded Due To Quiescence Or 0 Fpdc
FPDc ([2]; 0.1 µM): 1 Values Out Of 1 Were Excluded Due To Quiescence Or 0 Fpdc
FPD measurement ([7]; 0.0001 µM): 55.11 FPDc
FPDc ([7]; 0.0001 µM): 55.11
FPD measurement ([7]; 0.001 µM): 55.33 FPDc
FPDc ([7]; 0.001 µM): 55.33
FPD measurement ([7]; 0.01 µM): 57.8 FPDc
FPDc ([7]; 0.01 µM): 57.8
FPD measurement ([7]; 0.1 µM): 75.34 FPDc
FPDc ([7]; 0.1 µM): 75.34
APDc [3, 15]: 54.17
FPD measurement [3, 15]: 54.17 FPDc
APDc [3, 16]: 53.88
FPD measurement [3, 16]: 53.88 FPDc
APDc [3, 17]: 57.03
FPD measurement [3, 17]: 57.03 FPDc
APDc [3, 12]: 77.9
FPD measurement [3, 12]: 77.9 FPDc
FPD measurement [4, 15]: 5 Values Out Of 5 Were Excluded Due To Quiescence Or 0 Apdc
FPDc [4, 15]: 53.45
FPD measurement [4, 16]: 5 Values Out Of 5 Were Excluded Due To Quiescence Or 0 Apdc
FPDc [4, 16]: 49.25
FPD measurement [4, 17]: 5 Values Out Of 5 Were Excluded Due To Quiescence Or 0 Apdc
FPDc [4, 17]: 53.23
FPD measurement [4, 12]: 5 Values Out Of 5 Were Excluded Due To Quiescence Or 0 Apdc
FPDc [4, 12]: 40.28

C=C[C@H]1C[N@@]2CC[C@H]1C[C@@H]2[C@@H](O)c1ccnc2ccc(OC)cc12 [QUINIDINE]
FPD measurement [1, 18]: 114.6 FPDc
FPDc [1, 18]: 6 Values Out Of 6 Were Excluded Due To Quiescence Or 0 Fpdc
FPD measurement [1, 19]: 62.36 FPDc
FPDc [1, 19]: 6 Values Out Of 6 Were Excluded Due To Quiescence Or 0 Fpdc
FPDc [1, 20]: 6 Values Out Of 6 Were Excluded Due To Quiescence Or 0 Fpdc
FPDc [1, 21]: 6 Values Out Of 6 Were Excluded Due To Quiescence Or 0 Fpdc
FPD measurement [5, 18]: 5 Values Out Of 5 Were Excluded Due To Quiescence Or 0 Apdc
FPDc [5, 18]: 23.33
FPD measurement [5, 19]: 5 Values Out Of 5 Were Excluded Due To Quiescence Or 0 Apdc
FPDc [5, 19]: 5 Values Out Of 5 Were Excluded Due To Quiescence Or 0 Fpdc
FPD measurement [5, 20]: More Than Half The Wells Had A Quiescence Event Or Apdc Readings Of 0
FPDc [5, 20]: More Than Half The Wells Had A Quiescence Event Or Fpdc Readings Of 0
FPD measurement [5, 21]: More Than Half The Wells Had A Quiescence Event Or Apdc Readings Of 0
FPDc [5, 21]: More Than Half The Wells Had A Quiescence Event Or Fpdc Readings Of 0
APDc ([6]; 0.9507 µM): 66.37
FPD measurement ([6]; 0.9507 µM): 66.37 FPDc
APDc ([6]; 3.004 µM): 68.44
FPD measurement ([6]; 3.004 µM): 68.44 FPDc
APDc ([6]; 9.494 µM): More Than Half The Wells Had A Quiescence Event Or Apdc Readings Of 0
FPD measurement ([6]; 9.494 µM): More Than Half The Wells Had A Quiescence Event Or Apdc Readings Of 0
APDc ([6]; 30 µM): More Than Half The Wells Had A Quiescence Event Or Apdc Readings Of 0
FPD measurement ([6]; 30 µM): More Than Half The Wells Had A Quiescence Event Or Apdc Readings Of 0
FPD measurement ([7]; 0.9507 µM): 66.27 FPDc
FPDc ([7]; 0.9507 µM): 66.27
FPD measurement ([7]; 3.004 µM): More Than Half The Wells Had A Quiescence Event Or Fpdc Readings Of 0
FPDc ([7]; 3.004 µM): More Than Half The Wells Had A Quiescence Event Or Fpdc Readings Of 0
FPD measurement ([7]; 9.494 µM): More Than Half The Wells Had A Quiescence Event Or Fpdc Readings Of 0
FPDc ([7]; 9.494 µM): More Than Half The Wells Had A Quiescence Event Or Fpdc Readings Of 0
FPD measurement ([7]; 30 µM): More Than Half The Wells Had A Quiescence Event Or Fpdc Readings Of 0
FPDc ([7]; 30 µM): More Than Half The Wells Had A Quiescence Event Or Fpdc Readings Of 0
FPD measurement [4, 18]: 5 Values Out Of 5 Were Excluded Due To Quiescence Or 0 Apdc
FPDc [4, 18]: 51.68
FPD measurement [4, 19]: 5 Values Out Of 5 Were Excluded Due To Quiescence Or 0 Apdc
FPDc [4, 19]: 48.01
FPD measurement [4, 20]: 5 Values Out Of 5 Were Excluded Due To Quiescence Or 0 Apdc
FPDc [4, 20]: 56.69
FPD measurement [4, 21]: 5 Values Out Of 5 Were Excluded Due To Quiescence Or 0 Apdc
FPDc [4, 21]: 51.52
